Columns and labels:
beagle dogs [1] = assay: Dog cardiovascular study, QTc, d4-domperidone capsules (Example 3); assay type: in vivo; details: male dogs; for QTc Percent Change Segment 1 (0-6 hours) / QTc Percent Change Segment 2 (7-24 hours) / QTc change Segment 1 (0-6 hours) / QTc change Segment 2 (7-24 hours): vs time-matched control; for Duration of Effect (hours post dose): QTc
Procedure: Oral suspensions were administered via gavage for comparison purposes. […]
One animal/treatment was dosed each week with at least a 3-day washout period between administrations until each animal received all treatments. See, Table 5. The same 5 animals received all treatments according to a Latin square design with at least a 3-day washout between treatments. Body temperature, blood pressure, heart rate, and the electrocardiogram (ECG) were monitored continuously for at least 2 hours prior to dosing and for at least 24 hours post dose.
Three days prior to the study, the animals were continuously monitored for at least 24 hours for body temperature and cardiovascular endpoints while on the stock colony (10 days prior to the first administration). […] The first 24 hours of the data were used in the calculation of the QTc interval. Body temperature, blood pressure, heart rate (derived from blood pressure and ECG), and the ECG were monitored continuously from at least 2 hours predose until at least 24 hours post dose. Data were collected and analyzed in 1-minute intervals and are reported in 15-minute intervals. The QTc interval was calculated using a procedure based on the method described by Spence (“The heart rate corrected QT interval of conscious beagle dogs: a formula based on analysis of covariance,” Toxicol Sci, 1998; 45:247 258) and modified by Miyazaki and Tagawa (“Rate-correction technique for QT interval in long term telemetry ECG recording in beagle dogs,” Exp. Anim., 2002; 51:465 475). Blood samples (approximately 1 mL) were collected via jugular vein and 8 and 24 hours post dose to confirm exposure.
Table 6 indicates the change (% and ms) from the appropriate time-matched control for each d4-domperidone treatment.

beagle dogs [2] = assay: Dog cardiovascular study, QTc, non-deuterated domperidone by gavage (Example 3); assay type: in vivo; details: for QTc Maximum % Change / Time of QTc Maximum % Change / QTc Percent Change Segment 1 (0-6 hours) / QTc Percent Change Segment 2 (7-24 hours) / QTc change Segment 1 (0-6 hours) / QTc change Segment 2 (7-24 hours) / QTcVdW increase (Van de Water formula) / Duration of Effect (hours post dose): beagle dogs; for QTc Percent Change Segment 1 (0-6 hours) / QTc Percent Change Segment 2 (7-24 hours) / QTc change Segment 1 (0-6 hours) / QTc change Segment 2 (7-24 hours): vs time-matched control; for Duration of Effect (hours post dose): QTc
Procedure: Oral suspensions were administered via gavage for comparison purposes.
USP. The d4-domperidone formulation was Formulation A, Example 1. […] One animal/treatment was dosed each week with at least a 2-day washout period between administrations until each animal received all treatments. The same 4 animals received treatments according to a Latin square design. Systolic blood pressure, diastolic blood pressure, heart rate and Lead II electrocardiogram were continuously recorded. The measurements started 1.5 hrs prior to the dose administration and all parameters were continuously recorded 24 hrs following the end of dosing of the last animal.
The individual animal correction (QTcVdW) was calculated using Van de Water formula.

in vivo = details: male, Beagle, dog, plasma, po, 1 mg/kg

With [2H]c1c([2H])c([2H])c2c([nH]c(=O)n2CCCN2CCC(n3c(=O)[nH]c4cc(Cl)ccc43)CC2)c1[2H] [d4-domperidone, 1-{3-[4-(5-chloro-2-oxo-2,3-dihydro-1H-1,3-benzodiazol-1-yl)piperidin-1yl]propyl}-2,3-dihydro(4,5,6,7-D4)-1H-1,3-benzodiazol-2-one] the “QTc Maximum % Change” value (beagle dogs [1]; 20 mg capsule) was 4%, the “Time of QTc Maximum % Change” value (beagle dogs [1]; 20 mg capsule) was 3.5 h and the “QTc Percent Change Segment 1 (0-6 hours)” value (beagle dogs [1]; 20 mg capsule) was “+1%”. The “QTc Percent Change Segment 2 (7-24 hours)” value (beagle dogs [1]; 20 mg capsule) was “+0%”, the “QTc change Segment 1 (0-6 hours)” value (beagle dogs [1]; 20 mg capsule) was 3 ms and the “QTc change Segment 2 (7-24 hours)” value (beagle dogs [1]; 20 mg capsule) was 1 ms. The “Time of QTc Maximum % Change” value (beagle dogs [1]; 110 mg capsule) was 5 h, the “QTc Percent Change Segment 1 (0-6 hours)” value (beagle dogs [1]; 110 mg capsule) was “+5%” and the “QTc Percent Change Segment 2 (7-24 hours)” value (beagle dogs [1]; 110 mg capsule) was “+1%”. For the same compound, the “QTc change Segment 1 (0-6 hours)” value (beagle dogs [1]; 110 mg capsule) was 12 ms, the “QTc change Segment 2 (7-24 hours)” value (beagle dogs [1]; 110 mg capsule) was 2 ms and the “QTc Maximum % Change” value (beagle dogs [1]; 110 mg capsule, statistically significant) was 10%. The “Time of QTc Maximum % Change” value (beagle dogs [1]; 385 mg capsule) was 6 h, the “QTc Percent Change Segment 1 (0-6 hours)” value (beagle dogs [1]; 385 mg capsule) was “+8%” and the “QTc Percent Change Segment 2 (7-24 hours)” value (beagle dogs [1]; 385 mg capsule) was “+6%”. For the same compound, the “QTc change Segment 1 (0-6 hours)” value (beagle dogs [1]; 385 mg capsule) was 17 ms, the “QTc change Segment 2 (7-24 hours)” value (beagle dogs [1]; 385 mg capsule) was 13 ms and the “QTc Maximum % Change” value (beagle dogs [1]; 385 mg capsule, statistically significant) was 13%. The “Duration of Effect (hours post dose)” value (beagle dogs [1]; 20 mg capsule) was 1.5-12 hours post dose and the “Duration of Effect (hours post dose)” value (beagle dogs [1]; 110 mg capsule) was 0.5-12 hours post dose.

In the case of O=c1[nH]c2ccccc2n1CCCN1CCC(n2c(=O)[nH]c3cc(Cl)ccc32)CC1 [domperidone, 5-chloro-1-(1-[3-(2-oxo-2,3-dihydro-1H-benzo[d]imidazol-1-yl)propyl]piperidin-4-yl)-1H-benzo[d]imidazol-2(3H)-one], the “QTc Maximum % Change” value (beagle dogs [2]; 1 mg/kg gavage) was 6%, the “Time of QTc Maximum % Change” value (beagle dogs [2]; 1 mg/kg gavage) was 2 h and the “QTc Percent Change Segment 1 (0-6 hours)” value (beagle dogs [2]; 1 mg/kg gavage) was “+6%”. For the same compound, the “QTc Percent Change Segment 2 (7-24 hours)” value (beagle dogs [2]; 1 mg/kg gavage) was “+2%”, the “QTc change Segment 1 (0-6 hours)” value (beagle dogs [2]; 1 mg/kg gavage) was 13 ms and the “QTc change Segment 2 (7-24 hours)” value (beagle dogs [2]; 1 mg/kg gavage) was 4 ms. For the same compound, the “Time of QTc Maximum % Change” value (beagle dogs [2]; 5 mg/kg gavage) was 2 h, the “QTc Percent Change Segment 1 (0-6 hours)” value (beagle dogs [2]; 5 mg/kg gavage) was “+11%” and the “QTc Percent Change Segment 2 (7-24 hours)” value (beagle dogs [2]; 5 mg/kg gavage) was “+7%”. The “QTc change Segment 1 (0-6 hours)” value (beagle dogs [2]; 5 mg/kg gavage) was 23 ms, the “QTc change Segment 2 (7-24 hours)” value (beagle dogs [2]; 5 mg/kg gavage) was 15 ms and the “QTc Maximum % Change” value (beagle dogs [2]; 5 mg/kg gavage, statistically significant) was 11%. For the same compound, the “QTcVdW increase (Van de Water formula)” value (beagle dogs [2]; 5 mg/kg) was “up to 23 msec”, the “Time of QTc Maximum % Change” value (beagle dogs [2]; 20 mg/kg gavage) was 2 h and the “QTc Percent Change Segment 1 (0-6 hours)” value (beagle dogs [2]; 20 mg/kg gavage) was “+10%”. For the same compound, the “QTc Percent Change Segment 2 (7-24 hours)” value (beagle dogs [2]; 20 mg/kg gavage) was “+7%”, the “QTc change Segment 1 (0-6 hours)” value (beagle dogs [2]; 20 mg/kg gavage) was 21 ms and the “QTc change Segment 2 (7-24 hours)” value (beagle dogs [2]; 20 mg/kg gavage) was 16 ms. For the same compound, the “QTc Maximum % Change” value (beagle dogs [2]; 20 mg/kg gavage, statistically significant) was 10%, the “QTcVdW increase (Van de Water formula)” value (beagle dogs [2]; 20 mg/kg) was ≤ 21 ms and the “effect on QTc change, lower doses of non-deuterated formulation compared to higher doses of deuterated formulation” value (beagle dogs [2]; FIGS. 9 and 10, beagle dogs, in words) was “greater effect on QTc change”. For the same compound, the “Duration of Effect (hours post dose)” value (beagle dogs [2]; 1 mg/kg gavage) was 1-2 hours post dose, the “Duration of Effect (hours post dose)” value (beagle dogs [2]; 5 mg/kg gavage) was 0.5-6 hours post dose and the “Duration of Effect (hours post dose)” value (beagle dogs [2]; 20 mg/kg gavage) was 0.5-4 hours post dose. The MRT last (in vivo) was 5 h.

Reference: patent US12514852B2 (CINDOME PHARMA, INC., priority 2018, dated 2026)
